Reference: US20240336595A1, “BIFUNCTIONAL COMPOUNDS FOR DEGRADING BTK WITH DIMINISHED IMID ACTIVITY” (NURIX THERAPEUTICS, INC., priority 2021, published 2024)
Entries after “also recorded” stand apart in the source; their conditions may differ.

Experiments:
[1] = Exposure in cerebrospinal fluid after a single oral dose; assay type: in vivo, Male C57BL/6 mice; conditions: mouse, single oral dose 300 mg/kg
Experimental: Male C57BL/6 mice were administered Compound 1 orally at 300 mg/kg and 4, 8, or 24 hours after dosing CSF and plasma was collected from three mice per time point. The concentration of Compound 1 in CSF and plasma was determined by LC/MS/MS; free plasma concentration was calculated by multiplying total plasma concentration by the previously determined percentage of Compound 1 unbound to plasma protein.

plasma cell generation = test: Plasma cell generation upon NP-KLH immunization; assay type: in vivo, Mice
Experimental: Mice were immunized by intraperitoneal injection of 200 μL of immunogen containing 100 μg NP-32-KLH (Biosearch Technologies, Cat. N-5060-25,Lot. 156285-01) and 1% Alum (Alhydrogel, 2%, Invivogen Cat. Vac-alu-250, Batch 0001715532, Exp. July 2022), prepared in phosphate buffered saline. Group 1 mice were not immunized and used as control. Mice in Group 2 to 5 were dosed orally once a day from Day 1 to Day 7 with compounds or vehicle for six additional days and then sacrificed the following day. Splenocytes and bone marrow were harvested 24 hours following the final dosing of compound on Day 7. Spleens harvested at the end of the study were dissociated, and red blood cells were lysed with ammonium-chloride-potassium (ACK) lysis buffer. 1 million cells per tissue were stained for each flow cytometry panel.
Splenocytes were stained for lineage markers with fluorophore-conjugated antibodies and for NP hapten reactivity with NP-conjugated to phycoerythrin (NP-PE). Live single lymphocytes were gated for B cells (CD19+B220+) and then gated for IgD+ and IgD− B cells. IgD− B cells were then gated for germinal center B cells (Fas+GL-7+), and germinal center B cells were gated for NP+ cells on the basis of staining with NP-PE.
(§1) An ordinary one-way ANOVA with Tukey's multiple comparisons test was performed, and all groups were compared to each other. * p<0.05, ** p<0.01,**** p<0.001. All comparisons without an asterisk were not significant.

[2] = test system: collagen-induced arthritis (CIA) model; test: Collagen-induced arthritis (CIA) model; assay type: in vivo; conditions: mouse CIA, daily oral 30 mg/kg
From the text: Immunization with Collagen Type II (CII) in an adjuvant induces polyarthritis in rodents. This model known as the collagen-induced arthritis (CIA) model, is widely used for studying arthritis and resemble many aspect of the human disease. High level of anti-collagen II correlates with disease severity. In FIG. 1 CIA was induced by immunization with type II collagen in complete Freund's adjuvant on Day 0. A second boost was given on Day 21. Treatment with vehicle or therapeutic agents was initiated on Day 18 and continued to day 35. At the end of the study on Day 36, serum was collected. […] Significance of clinical arthritis score (A) was determined from the area under the curve (AUC) of mean paw scores calculated for individual mice. (C) Serum levels of anti-type II collagen IgG. Statistical significance was determined between vehicle control and treated groups with one-way Kruskal-Wallis ANOVA and Dunn's multiple comparisons test.

B cells compartment = test: Dosing effect on B cells compartment (B cells, plasma cells); assay type: in vivo, C57BL/6 mice; conditions: 30 mg/kg in water bottle
Experimental: (§2) A separate group of mice received vehicle formulation as control. Blood spleens and femurs for each treated mice were harvested at the end of the study. Peritoneal lavage was also performed with PBS to harvest peritoneal resident lymphocyte.
It is plausible that Compound 1 affects one or multiple proteins that are involved either in generation or the survival of plasma cells and that this effect is independent from its ability to degrade the BTK protein. Left, representative dot plots showing the gating strategy to identify plasma cells in bone marrow. Right histograms showing cumulative data from multiple treated animals.
as §1

BTK = BTK (Mus musculus, UniProt P35991); test: BTK level in B cells of dosed mice; assay type: in vivo, C57BL/6 mice; design: Single cell suspensions from each tissue were permeabilized and stained for lineage markers and intracellular BTK; from tissue; conditions: 30 mg/kg in water bottle; blood, spleens, peritoneum and bone marrow
Experimental: as §2
To evaluate level of BTK in B cells, Single cell suspensions from each tissue were permeabilized and stained for lineage markers and intracellular BTK. B cells were gated on B220+ TCRbeta−, and T cells were gated on B220− and TCRbeta+.

plasma cells = test: Plasma cell counts in spleen and bone marrow, established arthritis model; assay type: in vivo, male DBA/1 mice
From the text: (B) Spleens harvested at the end of the study were dissociated, and red blood cells were lysed with ammonium-chloride-potassium (ACK) lysis buffer. 1.5 million cells per spleen were stained for flow cytometry, and live single lymphocytes were gated for plasma cells (CD138+ IgD−). Plasma cells numbers were normalized to total B cells in spleen (CD19+B220+).
(C) Bone marrow was isolated from femurs harvested at the end of the study, and samples were processed and analyzed as in (B).
In (B) and (C), ordinary one-way ANOVAs with Dunnett's multiple comparisons tests were performed.

[3] = test system: well-established arthritis; test: Mouse model of well-established arthritis, clinical arthritis score; assay type: in vivo, male DBA/1 mice
tumor-expressed BTK = biological target: T1, tumor-expressed BTK (Homo sapiens, UniProt Q06187); test: Intracranial TMD8 tumor model, BTK remaining in TMD8 cells; assay type: in vivo, female CB.17 SCID mice; conditions: 90 mg/kg orally every day for twelve days, vs vehicle
T1 construct: endogenous in cells; host or cells: TMD8 cells (human ABC-DLBCL) grown intracranially in CB.17 SCID mice
Experimental: TMD8 cells were implanted into female CB.17 SCID mice by intracranial injection of 5E5 TMD8 cells. Treatment with compound 1 begun the following day. Mice were treated orally every day for twelve days with either vehicle or 90 mg/kg of Compound 1. Brains were then harvested, dissociated into single cell suspensions and BTK level in TMD8 cells was assessed by flow cytometry. TMD8 cells in dissociated brain tissue were identified by human-specific surface markers (CD20+HLA+) and total numbers of TMD8 cells per brain is reported in (A, tumor burden). Percent BTK remaining in TMD8 cells (B) was calculated according to the below formula:
100*(tumor BTK MFI−background MFI)/(peak MFI−background MFI),
where background MFI and peak MFI were calculated using TMD8 cells treated, in vitro, overnight with 1 μM compound 1 or DMSO control, respectively. In FIG. 8,**** p<0.0001; Welch's t-test was used to compare mice treated with compound 1 to mice treated with vehicle.

T1 sequence (Q06187 whole entry): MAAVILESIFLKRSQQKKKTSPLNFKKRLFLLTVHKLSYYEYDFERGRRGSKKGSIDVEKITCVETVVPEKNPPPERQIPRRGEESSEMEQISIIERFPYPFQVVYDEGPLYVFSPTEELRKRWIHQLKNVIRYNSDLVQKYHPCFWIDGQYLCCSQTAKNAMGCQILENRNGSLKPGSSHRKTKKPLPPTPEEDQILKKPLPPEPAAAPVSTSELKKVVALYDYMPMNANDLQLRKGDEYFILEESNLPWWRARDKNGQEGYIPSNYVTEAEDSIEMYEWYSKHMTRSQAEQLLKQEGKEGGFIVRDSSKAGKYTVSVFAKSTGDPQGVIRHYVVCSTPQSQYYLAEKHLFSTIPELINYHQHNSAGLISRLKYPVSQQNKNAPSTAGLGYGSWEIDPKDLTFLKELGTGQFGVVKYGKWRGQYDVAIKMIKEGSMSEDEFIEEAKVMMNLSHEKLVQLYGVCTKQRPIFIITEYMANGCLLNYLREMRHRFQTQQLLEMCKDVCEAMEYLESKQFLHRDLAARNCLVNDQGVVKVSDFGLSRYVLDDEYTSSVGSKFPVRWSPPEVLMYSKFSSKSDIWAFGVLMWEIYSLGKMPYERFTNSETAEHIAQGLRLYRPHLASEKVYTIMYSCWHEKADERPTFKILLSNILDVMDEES
BTK, sequence (P35991 whole entry): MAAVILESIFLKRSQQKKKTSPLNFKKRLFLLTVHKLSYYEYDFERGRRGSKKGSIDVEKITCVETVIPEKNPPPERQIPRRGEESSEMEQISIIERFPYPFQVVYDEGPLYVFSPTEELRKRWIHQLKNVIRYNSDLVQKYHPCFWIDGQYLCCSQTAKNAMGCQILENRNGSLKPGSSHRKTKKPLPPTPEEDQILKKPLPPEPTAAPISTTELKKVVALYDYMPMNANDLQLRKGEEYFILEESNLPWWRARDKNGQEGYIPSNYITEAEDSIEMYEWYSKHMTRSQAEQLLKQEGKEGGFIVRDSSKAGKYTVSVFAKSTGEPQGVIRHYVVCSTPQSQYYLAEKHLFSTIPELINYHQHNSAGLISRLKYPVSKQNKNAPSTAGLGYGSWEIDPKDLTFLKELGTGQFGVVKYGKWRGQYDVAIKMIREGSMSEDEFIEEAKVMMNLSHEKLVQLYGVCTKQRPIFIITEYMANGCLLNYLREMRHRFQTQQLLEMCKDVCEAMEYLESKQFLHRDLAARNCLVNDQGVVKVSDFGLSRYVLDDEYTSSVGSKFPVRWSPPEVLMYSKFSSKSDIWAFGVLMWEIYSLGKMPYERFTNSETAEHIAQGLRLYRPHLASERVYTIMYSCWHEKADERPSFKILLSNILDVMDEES

ability to cross the blood brain barrier [1]: crosses the blood brain barrier | BTK level in B cells (BTK): robust BTK degradation | BTK in TMD8 tumor cells (tumor-expressed BTK): degradation of tumor-expressed BTK | BTK in TMD8 tumor cells (tumor-expressed BTK; listed as compound 1): degraded BTK
SMILES: CN1CCN([C@@H]2CCCN(c3cnc(C(N)=O)c(Nc4ccc(C5CCN(CC6CCN(c7ccc(C(=O)N[C@H]8CCC(=O)NC8=O)nc7)CC6)CC5)cc4)n3)C2)C1=O [Compound 1]
exposure in cerebral spinal fluid (CSF) ([1]; 4, 8, 24 hours): demonstrates exposure in cerebral spinal fluid (CSF) | generation of plasma cells upon immunization (plasma cell generation; NP-KLH immunization, oral once a day Day 1 to Day 7): significantly decrease | germinal center formation (plasma cell generation; following NP-KLH immunization): do not affect | number of B cells in spleen (plasma cell generation; following NP-KLH immunization): do not affect | number of IgG1+ plasma cells in spleen (plasma cell generation; immunized mice): significantly decrease | number of total Plasma cells in spleen (plasma cell generation; immunized mice): significantly decrease | body weight [2]: minimal effect on body weight; also recorded: minimal body weight loss | mean arthritis score ([2]; Day 18 to day 35): significant benefit; also recorded: lower mean arthritis score than ibrutinib; also recorded: lower mean arthritis score than standard of care agents | plasma cells number in bone marrow (B cells compartment): significantly reduce | B cells percentage (B cells compartment; blood, spleens, peritoneum and bone marrow): does not significantly affect | plasma cells in spleen, normalized to total B cells (plasma cells; 30 mg/kg, vs 30 mg/kg rilzabrutinib and ibrutinib): significantly fewer plasma cells than mice treated with an equivalent dose of BTK inhibitors | plasma cells in spleen, normalized to total B cells (plasma cells; both doses (10 and 30 mg/kg), vs vehicle): significantly fewer plasma cells than vehicle-treated mice | plasma cell numbers in the bone marrow (plasma cells; vs vehicle and vs equivalent doses of rilzabrutinib and ibrutinib): significantly reduced plasma cell numbers | disease (clinical arthritis score) ([3]; 10 mg/kg or 30 mg/kg once daily oral, started after arthritis was established, to Arthritis Day 14): strongly suppressed disease | control of disease compared with comparators ([3]; Compound 1 and ibrutinib 30 mg/kg, Enbrel 10 mg/kg i.p., tofacitinib 30 mg/kg twice daily, rilzabrutinib): more potently than anti-TNF-alpha blocking antibody (Enbrel) or BTK inhibitors rilzabrutinib and tofacitinib
